We go through two molecules from patent publication US20240115654A1, “INTRAVENOUS ADMINISTRATION OF ENGINEERED ANTIMICROBIAL AMPHIPHILIC PEPTIDES” (priority 2021, published 2024).

Common to all, as to type: cell-based
For assay [1], the system named is Acinetobacter baumannii ATCC 19606 (non-MDR). To be noted: Acinetobacter baumannii ATCC 19606 (non-MDR). In outline: (§1)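 Test medium: Mueller Hinton II broth with 0.002% polysorbate 80. Organisms were exposed at ~5×10^5 CFU/mL to two-fold peptide dilutions, maximum 32 mcg/mL final, incubated at 35° C for 16–20 hrs; lowest concentration without visible growth recorded.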

The subject of assay [2] is Enterococcus faecalis ATCC 29212 (VSE; QC). The note with it: Enterococcus faecalis ATCC 29212 (VSE; QC). In outline:
as §1

Assay [3] has as its system Enterococcus faecalis ATCC 700802 (V583 VRE). In outline: as §1
The test system of assay [4] is Escherichia coli ATCC 25922 (QC). In outline: as §1
Assay [5] concerns Escherichia coli ATCC BAA-2471 (NDM-1). The note with it: Escherichia coli ATCC BAA-2471 (NDM-1). In outline: as §1
Assay [6] relates to Klebsiella pneumoniae ATCC BAA-1705 (KPC). In outline:
as §1

In assay [7] the test system is Pseudomonas aeruginosa ATCC BAA-2109 (MDR). To be noted: Pseudomonas aeruginosa ATCC BAA-2109 (MDR). In outline:
as §1

Assay [8] concerns Staphylococcus aureus ATCC 43300 (MRSA). In outline:
as §1

The subject of assay [9] is Staphylococcus aureus NRS382 (USA100; HA-MRSA). The essentials: as §1
For assay [10], the system named is Streptococcus pneumoniae ATCC 49619 (QC). The note with it: Streptococcus pneumoniae ATCC 49619 (QC). In outline: as §1
Assay [11] deals with Streptococcus pyogenes ATCC 49399. To be noted: Streptococcus pyogenes ATCC 49399. The essentials: as §1

≈ marks a conversion by molar mass, not a printed value. Where two headings read alike, the source gives them in different places. Peptide text beside a SMILES is read from it. A value given as a limit tells only on which side of the number the result lay.

Turning to `CC(C)[C@H](NC(=O)[C@H](Cc1c[nH]c2ccccc12)NC(=O)[C@H](CCCNC(=N)N)NC(=O)[C@H](CCCNC(=N)N)NC(=O)[C@@H](NC(=O)[C@@H](NC(=O)[C@H](CCCNC(=N)N)NC(=O)[C@@H](NC(=O)[C@@H](NC(=O)[C@H](CCCNC(=N)N)NC(=O)[C@H](CCCNC(=N)N)NC(=O)[C@H](Cc1c[nH]c2ccccc12)NC(=O)[C@@H](NC(=O)[C@H](CCCNC(=N)N)NC(=O)[C@H](CCCNC(=N)N)NC(=O)[C@@H](NC(=O)[C@H](CCCNC(=N)N)NC(=O)[C@H](CCCNC(=N)N)NC(=O)[C@@H](NC(=O)[C@H](Cc1c[nH]c2ccccc12)NC(=O)[C@H](CCCNC(=N)N)NC(=O)[C@@H](N)CCCNC(=N)N)C(C)C)C(C)C)C(C)C)C(C)C)C(C)C)C(C)C)C(C)C)C(=O)N[C@@H](CCCNC(=N)N)C(=O)N[C@@H](CCCNC(=N)N)C(N)=O` [SEQ ID NO: 1] (H-RRWVRRVRRVWRRVVRVVRRWVRR-NH2), the minimum inhibitory concentration (MIC) (commonly the least concentration at which growth counts as inhibited) is 2 µg/mL (≈ 0.588 µM) in assay [1]; 8 µg/mL (≈ 2.35 µM) in assay [2]; 4 µg/mL (≈ 1.18 µM) in assay [3] (ATCC 700802); 4 µg/mL (≈ 1.18 µM) in assay [4] (ATCC 25922); 2 µg/mL (≈ 0.588 µM) in assay [5]; 8 µg/mL (≈ 2.35 µM) in [6] (ATCC BAA-1705). Also, the minimal inhibitory concentration (MIC) is 4 µg/mL (≈ 1.18 µM) in assay [7]; 4 µg/mL (≈ 1.18 µM) in [8] (ATCC 43300); 4 µg/mL (≈ 1.18 µM) in assay [9] (USA100); 16 µg/mL (≈ 4.71 µM) in [10]; 8 µg/mL (≈ 2.35 µM) in assay [11].

Colistin [reference compound]: the minimum inhibitory concentration (MIC) in [1] was 0.25 µg/mL; in assay [2], >32 µg/mL; in assay [3] (Enterococcus faecalis ATCC 700802 (V583 VRE)) it was >32 µg/mL; in assay [4] (Escherichia coli ATCC 25922 (QC)), 0.12 µg/mL; in assay [5], 0.06 µg/mL; in assay [6] (Klebsiella pneumoniae ATCC BAA-1705 (KPC)) it was 0.12 µg/mL. The minimal inhibitory concentration (MIC) was 0.12 µg/mL in [7]; >32 µg/mL in [8] (Staphylococcus aureus ATCC 43300 (MRSA)); >32 µg/mL in [9] (Staphylococcus aureus NRS382 (USA100; HA-MRSA)); >32 µg/mL in assay [10]; >32 µg/mL in assay [11].
